This passage reports melting point results from patent US6869955B2, “Tetrahydropteridines and pyridylpiperazines for treatment of neurological disorders” (Bristol-Myers Squibb Pharma Company, priority 1996, dated 2005).

As for `CCCCN(CC)c1nc(C)nc2c1NC(=O)CN2c1ccc(C(C)C)cc1Br` [Example 1, 8-(2-bromo-4-isopropylphenyl)-4-(ethylbutylamino)-2-methyl-5,6,7,8-tetrahydropteridin-6-one], the melting point (as a rule, the temperature, or range, at which the solid turns liquid) lay within 146 to 147 °C. For `Cc1nc(-c2ccccc2C(F)(F)F)c2c(n1)N(c1ccc(C(C)C)cc1Br)CC(=O)N2` [Example 17, 8-(2-bromo-4-isopropylphenyl)-2-methyl-4-(2-trifluoromethylphenyl)-5,6,7,8-tetrahydropteridin-6-one] the value was 238 to 239 °C; for `CCCCN(CC)c1nc(C)nc2c1NC(=S)CN2c1ccc(C(C)C)cc1Br` [Example 131, 8-(2-bromo-4-isopropylphenyl)-4-(ethylbutylamino)-2-methyl-5,6,7,8-tetrahydropteridin-6-thione], 148 to 149 °C.

Take `CCCCN1C(=O)CN2C(=O)CN(c3ccc(C(C)C)cc3Br)c3nc(C)nc1c32` [Example 501, 10-[2-bromo-4-(1-methylethyl)-phenyl]-4-butyl-9,10-dihydro-2-methyl-4H,8H-pyrazino[3,2,1-de]pteridine-5,8(6H)-dione]: the melting point was in the range of 207 to 208 °C.
